ChEMBL document CHEMBL4739710, “Tetrahydropyridopyrazines as modulators of GPR6” (2020)

Biological target: G-protein coupled receptor 6 (Homo sapiens, UniProt P46095)
Experiment: Modulation of GPR6 (unknown origin) expressed in CHO-K1 cells assessed as inhibition of constitutive cAMP activity by HTRF assay
Format: functional, cell-based

G-protein coupled receptor 6, sequence (P46095 whole entry): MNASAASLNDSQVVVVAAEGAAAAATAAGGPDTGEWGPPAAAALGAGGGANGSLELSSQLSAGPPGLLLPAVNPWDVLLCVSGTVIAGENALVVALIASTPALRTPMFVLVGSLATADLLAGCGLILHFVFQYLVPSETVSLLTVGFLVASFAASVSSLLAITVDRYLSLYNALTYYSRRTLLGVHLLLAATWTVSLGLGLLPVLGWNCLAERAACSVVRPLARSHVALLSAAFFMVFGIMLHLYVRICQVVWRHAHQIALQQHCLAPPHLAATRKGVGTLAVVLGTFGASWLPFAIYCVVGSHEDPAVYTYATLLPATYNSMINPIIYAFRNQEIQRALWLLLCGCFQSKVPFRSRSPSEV

EC50: 47.9 nM
Compound: Cc1cc2nc(N[C@@H]3CCOC3)c(N3CCN(Cc4ccc(F)cc4F)CC3)nc2cn1
